Data: US20260265304A1, “PEPTIDE INHIBITORS OF FOCAL ADHESION KINASE ACTIVITY AND USES THEREOF” (Arizona Board of Regents on Behalf of the University of …, priority 2019, published 2026)
Several values for one entry are separate records, joined by “and”; a condition that tells them apart may be missing. Equal entries are not always repeated. Where two headings read alike, the source gives them in different places. Positions of bridges follow the written chain, without caps; N, C: chain ends. Non-standard residues stand in square brackets, D forms with d. Residues, ends and D or L forms follow the SMILES beside them. R8 = C=CCCCCCC[C@@](C)(N)C(=O)O; R5 = C=CCCC[C@@](C)(N)C(=O)O; S5 = C=CCCC[C@](C)(N)C(=O)O

Experiments:
[1] = biological target: T1, FAK FAT domain (biotinylated Avitag-FAT protein) (Homo sapiens, UniProt Q05397); assay: Surface plasmon resonance (SPR) binding to immobilised FAT protein; details: for Kd: FAT protein immobilised, peptide 200 μM-0.01 μM, 1:1 binding model; for binding and inhibitory properties (SPR/FP) in words, compared to 1907: SAR discussion of SPR and FP data
T1 construct: biotinylated Avitag-FAT protein was diluted in running buffer
T1 sequence (Q05397 914-1045 limits assumed): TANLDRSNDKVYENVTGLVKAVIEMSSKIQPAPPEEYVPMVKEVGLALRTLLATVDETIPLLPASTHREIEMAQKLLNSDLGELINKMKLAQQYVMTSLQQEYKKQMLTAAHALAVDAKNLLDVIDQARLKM
Procedure: SPR binding studies were performed on a ForteBio Pioneer FE SPR system. In brief, a SADH Streptavidin in Dextran Hydrogel biosensor (ForteBio) was docked onto the flow cell and preconditioned with two injections of 10 mM NaOH, 1 M NaCl for 1 min at 50 μL/min. […] Empty channel 2 served as the reference control. After achieving a stable baseline, a concentration series (200 μM-0.01 μM) of peptide was prepared in final running buffer (100 mM Tris-HCl, 200 mM NaCl, 0.05% Tween-20, 5% DMSO) and injected using the OneStep gradient injection method at a flow rate of 75 μL/min. […] Raw SPR data were appropriately processed in Qdat software (ForteBio) by normalizing the baseline prior to injection, aligning the channels, subtraction of the reference channel, and blank subtraction. Kinetic data were fitted to a pseudo-first order 1:1 interaction binding model using to calculate KD. In addition, a steady-state model and Req data points were used to validate the binding affinity. Visual inspection of the SPR sensograms was performed to verify appropriate model fitting, lack of mass transport effects, return to baseline, and lack of irregular kinetics.

[2] = biological target: T2, FAK FAT domain (paxillin-FAT binding) (Homo sapiens, UniProt Q05397); assay: Competition fluorescence polarization (FP) assay, inhibition of TAMRA-LD2 binding to FAT
T2 construct: FP Buffer containing 20 μM FAT and 0.1 μM TAMRA-LD2
T2 sequence (Q05397 914-1045 limits assumed): T1 sequence (Q05397 914-1045 limits assumed)
Procedure: The FP assay buffer used was 20 mM Tris, 200 mM NaCl, 0.05% β-me, 0.1% Triton X-100, 5% glycerol, and 1× Halt protease inhibitor cocktail. […] Bodipy TMR FP optical module (2100-4100) was used as the mirror.
Wells with no FAT were used as a baseline value which was subtracted from the raw values to produce ΔmP values. The plate was read at every hour for four hours to test for time differences in IC50. The titration data was processed through GraphPad Prism to produce a dose response curve and a calculated IC50 with standard error (SE). A four-parameter dose-response inhibition model was utilized and the bottom fit was constrained to the lower plateau of the curve. Ki was determined from the following calculation:
P0 is the concentration of free protein and KD is calculated from the saturation curve. 150 is calculated by the following equation:
where PT is the total protein concentration, LT is the total labeled-ligand concentration, P0 is the positive root of P0^2+(KD+LT)*P0−PT, PL0=P−P0, PL50=PL0/2, L0=LT-PL0, and L50=LT-PL50.

| Kd ([1]; read-out: SPR KD) | Compound | binding and inhibitory properties (SPR/FP) in words, compared to 1907 [1] | Ki ([2]; read-out: FP Ki) [µM] | Kd ([1]; SPR KD) [µM] | Ki [2] [µM] |
| --- | --- | --- | --- | --- | --- |
| 68.9 µM | CC(=O)N[C@@H](CC(N)=O)C(=O)N[C@@H](CC(C)C)C(=O)N[C@@H](CO)C(=O)N[C@@H](CCC(=O)O)C(=O)N[C@@]1(C)CCCC=CCCC[C@@](C)(C(=O)N[C@@H](CC(C)C)C(=O)N[C@@H](CCC(=O)O)C(=O)N[C@@H](CC(C)C)C(=O)N[C@@H](CC(N)=O)C(N)=O)NC(=O)[C@H](CC(C)C)NC(=O)[C@H](CCCNC(=N)N)NC(=O)[C@H](CC(=O)O)NC1=O [Peptide 1919, Ac-NLSES5DRLS5LELN-NH2] (Ac-NLSE[S5]DRL[S5]LELN-NH2; staple 5-9) | did not show much activity compared to 1907 | 38.6 |  |  |
| 13.7 µM | CC(=O)N[C@@H](CC(=O)O)C(=O)N[C@@H](CC(C)C)C(=O)N[C@]1(C)CCCCCCC=CCCC[C@@](C)(C(=O)N[C@@H](CCC(=O)O)C(=O)N[C@@H](CC(C)C)C(=O)N[C@@H](CC(=O)O)C(N)=O)NC(=O)[C@H](CC(C)C)NC(=O)[C@H](CC(C)C)NC(=O)[C@H](CCCNC(=N)N)NC(=O)[C@H](CC(=O)O)NC(=O)[C@H](CC(C)C)NC(=O)[C@H](CCC(=O)O)NC1=O [Peptide 1913, Ac-DLR8ELDRLLS5ELD-NH2] (Ac-DL[R8]ELDRLL[S5]ELD-NH2; staple 3-10) |  | 21.8 |  |  |
| 73.1 µM | CC(=O)N[C@@H](CC(N)=O)C(=O)N[C@@H](CC(C)C)C(=O)N[C@]1(C)CCCCCCC=CCCC[C@@](C)(C(=O)N[C@@H](CCC(=O)O)C(=O)N[C@@H](CC(C)C)C(=O)N[C@@H](CC(N)=O)C(N)=O)NC(=O)[C@H](Cc2c[nH]c3ccccc23)NC(=O)[C@H](CC(C)C)NC(=O)[C@H](CCCNC(=N)N)NC(=O)[C@H](CC(=O)O)NC(=O)[C@H](CC(C)C)NC(=O)[C@H](CCC(=O)O)NC1=O [Peptide 2007, Ac-NLR8ELDRLWS5ELN-NH2] (Ac-NL[R8]ELDRLW[S5]ELN-NH2; staple 3-10) | worse binding and inhibitory properties compared to 1907 | 190 |  |  |
| > 200 µM | CC(=O)N[C@@H](CC(N)=O)C(=O)N[C@@H](CC(C)C)C(=O)N[C@@H](CO)C(=O)N[C@@H](CCC(=O)O)C(=O)N[C@]1(C)CCCCCCC=CCCC[C@@](C)(C(=O)N[C@@H](CC(N)=O)C(N)=O)NC(=O)[C@H](CCC(=O)O)NC(=O)[C@H](CC(C)C)NC(=O)[C@H](C)NC(=O)[C@H](C)NC(=O)[C@H](CCCNC(=N)N)NC(=O)[C@H](CC(=O)O)NC1=O [Peptide 1925, Ac-NLSER8DRAALES5N-NH2] (Ac-NLSE[R8]DRAALE[S5]N-NH2; staple 5-12) |  | 492 |  |  |
| 911 µM | CC(=O)N[C@@H](CC(N)=O)C(=O)N[C@@H](CC(C)C)C(=O)N[C@@H](CO)C(=O)N[C@@H](CCC(=O)O)C(=O)N[C@]1(C)CCCC=CCCC[C@@](C)(C(=O)N[C@@H](CC(C)C)C(=O)N[C@@H](CC(C)C)C(=O)N[C@@H](CCC(=O)O)C(=O)N[C@@H](CC(C)C)C(=O)N[C@@H](CC(N)=O)C(N)=O)NC(=O)[C@H](CCCNC(=N)N)NC(=O)[C@H](CC(=O)O)NC1=O [Peptide 2022, Ac-NLSER5DRS5LLELN-NH2] (Ac-NLSE[R5]DR[S5]LLELN-NH2; staple 5-8) | did not show much activity compared to 1907 | 341 |  |  |
| > 200 µM | CC(=O)N[C@@H](CC(N)=O)C(=O)N[C@]1(C)CCCC=CCCC[C@@](C)(C(=O)N[C@@H](CC(=O)O)C(=O)N[C@@H](CCCNC(=N)N)C(=O)N[C@@H](CC(C)C)C(=O)N[C@@H](CC(C)C)C(=O)N[C@@H](CC(C)C)C(=O)N[C@@H](CCC(=O)O)C(=O)N[C@@H](CC(C)C)C(=O)N[C@@H](CC(N)=O)C(N)=O)NC(=O)[C@H](CCC(=O)O)NC(=O)[C@H](CO)NC1=O [Peptide 2024] (Ac-N[R5]SE[S5]DRLLLELN-NH2; staple 2-5) | did not show much activity compared to 1907 | 412 |  |  |

The remaining lines, values behind:

| Compound | Kd ([1]; read-out: SPR KD) | binding and inhibitory properties (SPR/FP) in words, compared to 1907 [1] | Ki ([2]; read-out: FP Ki) [µM] | Kd ([1]; SPR KD) [µM] | Ki [2] [µM] |
| --- | --- | --- | --- | --- | --- |
| CC(=O)N[C@@H](CC(N)=O)C(=O)N[C@@H](CC(C)C)C(=O)N[C@]1(C)CCCCCCC=CCCC[C@@](C)(C(=O)N[C@@H](CCC(N)=O)C(=O)N[C@@H](CC(C)C)C(=O)N[C@@H](CC(N)=O)C(N)=O)NC(=O)[C@H](CC(C)C)NC(=O)[C@H](CC(C)C)NC(=O)[C@H](CCCNC(=N)N)NC(=O)[C@H](CC(=O)O)NC(=O)[C@H](CC(C)C)NC(=O)[C@H](CCC(N)=O)NC1=O [Peptide 1910, Ac-NLR8QLDRLLS5QLN-NH2] (Ac-NL[R8]QLDRLL[S5]QLN-NH2; staple 3-10) | 24.8 µM | not as active as 1907 | 46.8 |  |  |
| CSCC[C@@H]1NC(=O)[C@H](Cc2ccccc2)NC(=O)[C@H](CCCNC(=N)N)NC(=O)[C@H](CC(C)C)NC(=O)[C@H](CCCNC(=N)N)NC(=O)[C@H](C)NC(=O)[C@](C)(NC(=O)[C@H](CCCNC(=N)N)NC(=O)[C@H](CCCNC(=N)N)NC(C)=O)CCCCCCC=CCCC[C@@](C)(C(=O)N[C@@H](CCC(N)=O)C(=O)N[C@@H](Cc2ccccc2)C(=O)N[C@@H](Cc2ccc(O)cc2)C(N)=O)NC1=O [Peptide 1929, Ac-RRR8ARLRFMS5QFY-NH2] (Ac-RR[R8]ARLRFM[S5]QFY-NH2; staple 3-10) | 77.6 µM | did not have comparable activity to LD2-derived 1907 | > 1250 |  |  |
| CC(C)C[C@@H]1NC(=O)[C@H](CCCNC(=N)N)NC(=O)[C@H](CC(=O)O)NC(=O)[C@H](CC(C)C)NC(=O)[C@](C)(NC(=O)[C@H](CO)NC(=O)[C@H](CC(C)C)NC(=O)[C@@H](N)CC(N)=O)CCCCCCC=CCCC[C@@](C)(C(=O)N[C@@H](CC(C)C)C(=O)N[C@@H](CC(N)=O)C(N)=O)NC(=O)[C@H](CC(N)=O)NC(=O)[C@H](CC(C)C)NC1=O [Peptide 1906, H-NLSR8LDRLLNS5LN-NH2] (H-NLS[R8]LDRLLN[S5]LN-NH2; staple 4-11) | > 200 µM |  | > 1250 |  |  |
| CC(=O)N[C@@H](CC(N)=O)C(=O)N[C@@H](CC(C)C)C(=O)N[C@]1(C)CCCCCCC=CCCC[C@@](C)(C(=O)N[C@@H](CCC(=O)O)C(=O)N[C@@H](CC(C)C)C(=O)N[C@@H](CC(N)=O)C(N)=O)NC(=O)[C@H](CC(C)C)NC(=O)[C@H](CC(C)C)NC(=O)[C@H](CCCNC(=N)N)NC(=O)[C@H](CC(=O)O)NC(=O)[C@H](CC(C)C)NC(=O)[C@H](C)NC1=O [Peptide 2009, Ac-NLR8ALDRLLS5ELN-NH2] (Ac-NL[R8]ALDRLL[S5]ELN-NH2; staple 3-10) | 6.96 µM |  | 26.7 |  |  |
| CC(=O)N[C@@H](CO)C(=O)N[C@@H](CC(C)C)C(=O)NCC(=O)N[C@@H](CO)C(=O)N[C@@H](CC(N)=O)C(=O)N[C@@H](CC(C)C)C(=O)N[C@]1(C)CCCCCCC=CCCC[C@@](C)(C(=O)N[C@@H](CCC(=O)O)C(=O)N[C@@H](CC(C)C)C(=O)N[C@@H](CC(N)=O)C(=O)N[C@@H](C)C(=O)N[C@H](C(=O)N[C@@H](CCC(N)=O)C(=O)N[C@@H](Cc2c[nH]cn2)C(N)=O)C(C)C)NC(=O)[C@H](CC(C)C)NC(=O)[C@H](CC(C)C)NC(=O)[C@H](CCCNC(=N)N)NC(=O)[C@H](CC(=O)O)NC(=O)[C@H](CC(C)C)NC(=O)[C@H](CCC(=O)O)NC1=O [Peptide 1920, Ac-SLGSNLR8ELDRLLS5ELNAVQH-NH2] (Ac-SLGSNL[R8]ELDRLL[S5]ELNAVQH-NH2; staple 7-14) | 7 µM and 6.95 µM |  | 25 |  |  |
| CC(=O)N[C@@H](CC(N)=O)C(=O)N[C@@H](CC(C)C)C(=O)N[C@]1(C)CCCCCCC=CCCC[C@@](C)(C(=O)N[C@@H](CCC(=O)O)C(=O)N[C@@H](CC(C)C)C(=O)N[C@@H](CC(N)=O)C(N)=O)NC(=O)[C@H](CC(C)C)NC(=O)[C@H](CC(C)C)NC(=O)[C@H](C)NC(=O)[C@H](CC(=O)O)NC(=O)[C@H](CC(C)C)NC(=O)[C@H](C)NC1=O [Peptide 2010, Ac-NLR8ALDALLS5ELN-NH2] (Ac-NL[R8]ALDALL[S5]ELN-NH2; staple 3-10) |  |  |  | 12.6 | 68.5 |
